Assays:
subjects with migraine [1] = experiment: Clinical Study Trials #1 and #2: severity of migraine headaches, topiramate with triptan rescue therapy; assay type: in vivo, human; conditions: for Severity of Migraine Headaches, Baseline / Severity of Migraine Headaches, Double-Blind: triptan rescue therapy; for Severity of Migraine Headaches, Double-Blind: Double-Blind Phase; for Severity of Migraine Headaches, Difference: Double-Blind minus Baseline
Experimental: (§1) The primary objective of these studies was to evaluate the safety and efficacy of three doses of topiramate (50, 100, and 200 mg/day) versus placebo in the prophylaxis of migraine based on the change in the monthly (28 day) migraine period rate from the Prospective Baselin,e Period to the Double-Blind Phase. The secondary objectives for the studies were to assess dose response relationship, and to evaluate the effect of prophylactic treatment with topiramate (50, 100, and 200 mg/day) versus placebo on Health-Related Quality of Life (HRQL).
(§2) The studies were randomized, double-blind, placebo-controlled, parallel-group, multicenter studies. Male and female subjects were randomized equally to the four treatment groups.
(§3) While the IHS criteria was used to establish the diagnosis at study entry, the evaluation of efficacy was based on migraine periods. A migraine period was defined as the length of time between the onset and cessation of painful migraine symptoms. This period could last up to, but no longer than, 24 hours. If the painful symptoms persisted more than 24 hours after their initial onset, this was considered to be a new, distinct migraine period. If symptoms recurred within 24 hours of the initial onset, this was considered part of the same, initial period.
(§4) Subjects who completed the Baseline Phase and met the entry criteria were randomized to one of four treatment groups: 50 mg/day topiramate, 100 mg/day topiramate, 200 mg/day topiramate or placebo. The Double-Blind Phase had two periods: Titration and Maintenance, which are described in more detail below.
(§5) The Titration Period immediately followed the Baseline Phase and extended for eight weeks (56 days). During this period, subjects randomized to topiramate were started at a dose of 25 mg/day and the daily dose was increased by 25 mg weekly until they reach their assigned dose (or maximum tolerated dose, whichever is less). From the third week of Titration until the end of the Maintenance Period, a maximum of two dose level reductions were permitted for unacceptable tolerability problems. If the subject was still in the Titration Period after a dose reduction, rechallenge may have occurred in an attempt to achieve the subject's assigned dose, and, if unsuccessful, the dose may have been reduced again to the original reduced dose. Subjects who had their study medication dose decreased twice, and were still experiencing unacceptable tolerability problems that warranted additional dose reductions, exited the study. Clinic visits occurred on Day 29 (Visit 3) and Day 57 (Visit 4/End of Titration).
(§6) During this 18-week period, the subjects remained on the dose of study medication reached at the end of the Titration Period (the assigned dose or the maximum tolerated dose). If the subject experienced unacceptable tolerability problems, the dose was reduced, only one dose reduction was permitted in the maintenance. No rechallenge was permitted during the Maintenance Period, so that subject continued on the reduced dose for the remainder of the period. Subjects who already had their study medication dose decreased by two levels, and were still experiencing unacceptable tolerability problems that warranted additional dose reductions exited the study. Clinic visits occurred on Day 85 (Visit 5), Day 113 (Visit 6), Day 141 (Visit 7) and Day 183 (Visit 8/ Double-Blind Final Visit or Early Withdrawal).
(§7) Subjects were randomized to one of four treatment groups: a) placebo, b) 50 mg/day topiramate, c) 100 mg/day topiramate, or d) 200 mg/day topiramate. All subjects received study medication in a b.i.d. dosing regimen except during the first week of Titration, during which they took single evening doses.
(§8) In keeping with good pain management practices, subjects enrolled in these studies were permitted to take acute abortive/rescue medication as indicated for the treatment of pain during migraine/headache attacks. […]

subjects with migraine [2] = experiment: Clinical Study Trials #1 and #2: severity of nausea associated with migraine headaches; assay type: in vivo, human; conditions: for Severity of Nausea Associated Migraine Headaches, Baseline / Severity of Nausea Associated Migraine Headaches, Double-Blind / Severity of Nausea Associated Migraine Headaches, Difference: scale 0 to 3; for Severity of Nausea Associated Migraine Headaches, Baseline / Severity of Nausea Associated Migraine Headaches, Double-Blind: triptan rescue therapy; for Severity of Nausea Associated Migraine Headaches, Double-Blind: Double-Blind Phase; for Severity of Nausea Associated Migraine Headaches, Difference: Double-Blind minus Baseline
Experimental: as §1, §2, §3, §4, §5, §6, §7, §8

subjects with migraine [3] = experiment: Clinical Study Trials #1 and #2: severity of phonophobia associated with migraine headaches; assay type: in vivo, human; conditions: for Severity of Phonophobia Associated With Migraine Headaches, Baseline / Severity of Phonophobia Associated With Migraine Headaches, Double-Blind / Severity of Phonophobia Associated With Migraine Headaches, Difference: scale 0 to 3; for Severity of Phonophobia Associated With Migraine Headaches, Baseline / Severity of Phonophobia Associated With Migraine Headaches, Double-Blind: triptan rescue therapy; for Severity of Phonophobia Associated With Migraine Headaches, Double-Blind: Double-Blind Phase; for Severity of Phonophobia Associated With Migraine Headaches, Difference: Double-Blind minus Baseline
Experimental: as §1, §2, §3, §4, §5, §6, §7, §8

[4] = test system: persistent daily headache with migraine features; experiment: Case Study 1: persistent daily headache with migraine features; assay type: in vivo, human; conditions: topiramate 75 mg/day with INDERAL at 20 mg/day
Source text: The patient was a person with persistent daily headache with migraine features.

[5] = test system: refractory migraine (migraine without aura); experiment: Case Study 2: refractory migraine without aura; assay type: in vivo, human; conditions: 75 mg/day topiramate, 20 mg/day CORGARD and 20 mg/day CELEXA
Experimental: The patient was a person with a lifelong history of refractory migraine (migraine without aura), averaging 8 migraines per month. […] The patient was started on topiramate at 25 mg/day, with dosage increasing to 75 mg/day. Simultaneously, the beta-blocker, CORGARD dosage was decreased to 20 mg/day, with CELEXA at 20 mg/day also continued.

[6] = test system: severe refractory migraine with and without aura; experiment: Case Study 3: severe refractory migraine with and without aura; assay type: in vivo, human
Experimental: The patient was a person with a twenty-year history of severe refractory migraine with and without aura. […] The patient was started on topiramate at 50 mg/day increasing to 100 mg in the morning and 100 mg in the evening, in combination with INDERAL at 160 mg/day. […] After about 6 months, the patient was prescribed EFFEXOR XR (vanlafaxine HCl) at 37 mg/day, an increased topiramate dose of 125 mg in the morning and 150 mg in the evening, and 160 mg/day INDERAL.

[7] = test system: simple and complex partial seizures and secondarily generalized seizures; conditions: clinical trials of human epilepsy; cited from earlier work
seizures = conditions: several rodent models of epilepsy; cited from earlier work
kindled epilepsy = conditions: animal model of kindled epilepsy; cited from earlier work

## CC1(C)O[C@@H]2[C@@H](CO[C@@]3(COS(N)(=O)=O)OC(C)(C)O[C@@H]23)O1 [topiramate, 2,3:4,5-bis-O-(1-methylethylidene)-β-D-fructopyranose sulfamate]
Subjects with migraine [1]; TPM 50 mg, scale 0 to 3 (0=none, 3=severe)
  Severity of Migraine Headaches, Baseline: 2.32
Subjects with migraine [1]; TPM 50 mg, scale 0 to 3
  Severity of Migraine Headaches, Double-Blind: 2.18
  Severity of Migraine Headaches, Difference: −0.13
Subjects with migraine [1]; TPM 100 mg, scale 0 to 3
  Severity of Migraine Headaches, Baseline: 2.33
  Severity of Migraine Headaches, Double-Blind: 2.14
  Severity of Migraine Headaches, Difference: −0.19
Subjects with migraine [1]; TPM 200 mg, scale 0 to 3
  Severity of Migraine Headaches, Baseline: 2.26
  Severity of Migraine Headaches, Double-Blind: 2.16
  Severity of Migraine Headaches, Difference: −0.10
Subjects with migraine [1]; patient group taking 100 mg topiramate
  Statistical significance of effect on severity of migraine headaches (in words): Statistically significant results
Subjects with migraine [1]; topiramate in combination with triptan rescue medication vs rescue medications alone, 50, 100 and 200 mg
  Effect on severity of migraine headaches (in words): decrease in the severity of migraine headaches
Subjects with migraine [2]; TPM 50 mg
  Severity of Nausea Associated Migraine Headaches, Baseline: 1.17
  Severity of Nausea Associated Migraine Headaches, Double-Blind: 1.17
  Severity of Nausea Associated Migraine Headaches, Difference: −0.01
Subjects with migraine [2]; TPM 100 mg
  Severity of Nausea Associated Migraine Headaches, Baseline: 1.22
  Severity of Nausea Associated Migraine Headaches, Double-Blind: 1.12
  Severity of Nausea Associated Migraine Headaches, Difference: −0.10
Subjects with migraine [2]; TPM 200 mg
  Severity of Nausea Associated Migraine Headaches, Baseline: 1.12
  Severity of Nausea Associated Migraine Headaches, Double-Blind: 1.09
  Severity of Nausea Associated Migraine Headaches, Difference: −0.03
Subjects with migraine [2]; patients taking 100 mg topiramate
  Statistical significance of effect on severity of nausea (in words): Statistically significant differences in the severity of nausea
Subjects with migraine [2]; topiramate with triptan class rescue medications, measurable at 100 mg and 200 mg
  Effect on severity of nausea associated with migraine headaches (in words): decrease in the severity of nausea
Subjects with migraine [3]; TPM 50 mg
  Severity of Phonophobia Associated With Migraine Headaches, Baseline: 1.65
  Severity of Phonophobia Associated With Migraine Headaches, Double-Blind: 1.59
  Severity of Phonophobia Associated With Migraine Headaches, Difference: −0.06
Subjects with migraine [3]; TPM 100 mg
  Severity of Phonophobia Associated With Migraine Headaches, Baseline: 1.72
  Severity of Phonophobia Associated With Migraine Headaches, Double-Blind: 1.58
  Severity of Phonophobia Associated With Migraine Headaches, Difference: −0.15
Subjects with migraine [3]; TPM 200 mg
  Severity of Phonophobia Associated With Migraine Headaches, Baseline: 1.50
  Severity of Phonophobia Associated With Migraine Headaches, Double-Blind: 1.47
  Severity of Phonophobia Associated With Migraine Headaches, Difference: −0.03
Subjects with migraine [3]; patients taking 100 mg topiramate in Study 1
  Statistical significance of effect, text under Table 5 (in words): Statistically significant differences in the severity of nausea
Subjects with migraine [3]; topiramate with triptan rescue medication vs triptan rescue alone, measurable at 50 mg and 100 mg
  Effect on severity of associated phonophobia (in words): decreased the severity of associated phonophobia
[4]
  Effect on daily headaches: significant improvement and resolution of the daily headaches
  Migraine headache frequency on treatment: approximately one per week
[5]
  Headache frequency: significant decrease in headache frequency
  Headache-free time: no headache for up to four weeks
[6]; topiramate 100 mg in the morning and 100 mg in the evening with INDERAL at 160 mg/day
  Response of severe refractory migraine: initial positive response, but the headaches broke through
[6]; topiramate 125 mg morning and 150 mg evening, EFFEXOR XR 37 mg/day, INDERAL 160 mg/day
  Response of severe refractory migraine: Modest but sustained improvement
[7]
  Efficacy in treating simple and complex partial seizures and secondarily generalized seizures: effective as adjunctive therapy or as monotherapy
seizures
  Block of seizures: effectively block seizures
Kindled epilepsy
  Block of seizures: effectively block seizures
